Data reported in patent US20230142366A1, “NOVEL POLYMORPHIC FORMS OF METOPIMAZINE” (Neurogastrx, Inc., priority 2020, published 2023).
Where a name gives a salt, the structure may show the parent alone. Marks after values point to notes of the source that are not given here.

Assays:
[1] = Clinical comparative pharmacokinetic study, 3-period cross-over, single oral doses, plasma samples; type: in vivo, human
Protocol: A clinical comparative pharmacokinetic study was performed to understand the pharmacokinetic profile of metopimazine mesylate Crystal Form A in comparison to the free base of metopimazine. This study was as a 3-period, cross-over design with 3 administrations of single doses: oral formulation of metopimazine mesylate Crystal Form A fasting, oral formulation of metopimazine mesylate Crystal Form A after a high-fat breakfast, and oral formulation of metopimazine free base fasting, with a wash-out period of 48 hours between each administration. Fifteen subjects were enrolled and received each of the 3 treatment. Plasma samples from each subject were analyzed for various pharmacokinetic parameters. Mixed model repeated measures (MMRM) analysis was performed on each sample.
The second objective of this study was to compare the pharmacokinetics of metopimazine mesylate Crystal Form A administered as an oral administration of a single dose of 15 mg orally in 15 human subjects either in a fasted state or after a high fat breakfast. Plasma samples from each subject were analyzed for various pharmacokinetic parameters. […] Both Cmax and AUC are well within the 90% confidence interval.

[2] = before and after a high fat breakfast; cited from earlier work
[3] = 15 mg single oral dose, n = 15, fasted
[4] = 90% confidence interval of ratio fasted vs fed
[5] = 90% confidence interval of ratio fasted vs fed, marked bioequivalence
[6] = single dose of 15 mg orally, 15 human subjects

Tmax CV % [1, 3] | Tmax Max [1, 3] | Tmax Median [1, 3] | Tmax Min [1, 3] | Tmax Mean ([1]; 15 mg single oral dose, n = 15, fasted, plasma) | Change in AUC when administered with food ([1]; 15 mg oral, fed vs fasted) | Reduction in Cmax when administered with food ([1]; 15 mg oral, fed vs fasted) | AUC0-inf GLSM Ratio fasted vs fed (%) ([1]; 15 mg, n = 15) | Cmax GLSM Ratio fasted vs fed (%) ([1]; 15 mg, n = 15) | Cmax ratio Lower CI % [1, 4] | Cmax ratio Upper CI % [1, 4] | AUC0-inf ratio Lower CI % [1, 5] | AUC0-inf ratio Upper CI % [1, 5] | Geometric mean difference in AUC, high fat breakfast vs fasted [1, 6] | Geometric mean difference in Cmax, high fat breakfast vs fasted [1, 6] | Structure (SMILES) | Reduction in AUC (food effect) [2] | Reduction in Cmax (food effect) [2] | Variance of Tmax values compared with metopimazine free base ([1]; 15 mg oral, fasted, MMRM analysis)
77.33% | 4.00 h | 1.00 h | 0.50 h | 1.27 h |  |  |  |  |  |  |  |  |  |  | CS(=O)(=O)c1ccc2c(c1)N(CCCN1CCC(C(N)=O)CC1)c1ccccc1S2 [Metopimazine free base, 1-(3-(2-(methylsulfonyl)-10H-phenothiazin-10-yl)propyl)piperidine-4-carboxamide, reference compound] | 23% | 58% | 
34.25% | 1.50 h |  | 0.50 h |  | no notable change in AUC | approximately 15% | 93.63% | 84.07% | 63.82% | 110.75% | 86.00* % | 101.93* % | not statistical difference | slightly but significantly lower | CS(=O)(=O)c1ccc2c(c1)N(CCCN1CCC(C(N)=O)CC1)c1ccccc1S2 [Metopimazine mesylate Crystal Form A, 1-(3-(2-(methylsulfonyl)-10H-phenothiazin-10-yl)propyl)piperidine-4-carboxamide methanesulfonic acid] |  |  | statistically significantly lower variance
